From US20070049592A1, “Bis-aryl urea compounds and methods of use” (priority 2005, published 2007)

Tests used:
[1] = tested on: Human Umbilical Vein Endothelial cells; experiment: HUVEC proliferation assay (VEGF); format: cell-based; settings: VEGF-stimulated HUVEC proliferation
Protocol: Human Umbilical Vein Endothelial cells are purchased from Clonetics, Inc., as cryopreserved cells harvested from a pool of donors. These cells, at passage 1, are thawed and expanded in EBM-2 complete medium, until passage 2 or 3. The cells are trypsinized, washed in DMEM+10% FBS+antibiotics, and spun at 1000 rpm for 10 min. Prior to centrifugation of the cells, a small amount is collected for a cell count. After centrifugation, the medium is discarded, and the cells are resuspended in the appropriate volume of DMEM+10% FBS+antibiotics to achieve a concentration of 3×10^5 cells/mL. Another cell count is performed to confirm the cell concentration. The cells are diluted to 3×10^4 cells/mL in DMEM+10% FBS+antibiotics, and 100 μL of cells are added to a 96-well plate. The cells are incubated at 37° C. for 22 h.
Prior to the completion of the incubation period, compound dilutions are prepared. Five-point, five-fold serial dilutions are prepared in DMSO, at concentrations 400-fold greater than the final concentrations desired. 2.5 μL of each compound dilution are diluted further in a total of 1 mL DMEM+10% FBS+antibiotics (400× dilution). Medium containing 0.25% DMSO is also prepared for the 0 μM compound sample. At the 22 h timepoint, the medium is removed from the cells, and 100 μL of each compound dilution is added. The cells are incubated at 37° C. for 2-3 h.
During the compound pre-incubation period, the growth factors are diluted to the appropriate concentrations. Solutions of DMEM+10% FBS+antibiotics, containing either VEGF or bFGF at the following concentrations: 50, 10, 2, 0.4, 0.08, and 0 ng/mL are prepared. For the compound-treated cells, solutions of VEGF at 550 ng/mL or bFGF at 220 ng/mL for 50 ng/mL or 20 ng/mL final concentrations, respectively, are prepared since 10 μL of each will be added to the cells (110 μL final volume). At the appropriate time after adding the compounds, the growth factors are added. VEGF is added to one set of plates, while bFGF is added to another set of plates. For the growth factor control curves, the media on wells B4-G6 of plates 1 and 2 are replaced with media containing VEGF or bFGF at the varying concentrations (50-0 ng/mL). The cells are incubated at 37° C. for an additional 72 h.
At the completion of the 72 h incubation period, the medium is removed, and the cells are washed twice with PBS. After the second wash with PBS, the plates are tapped gently to remove excess PBS, and the cells are placed at −70° C. for at least 30 min. The cells are thawed and analyzed using the CyQuant fluorescent dye (Molecular Probes C-7026), following the manufacturer's recommendations. The plates are read on a Victor/Wallac 1420 workstation at 485 nm/530 nm (excitation/emission). Raw data is collected and analyzed using a 4-parameter fit equation in XLFit. IC50 values are then determined.

[2] = tested on: production of TNF by monocytes activated with bacterial lipopolysaccharide (LPS); experiment: Lipopolysaccharide-activated monocyte TNF production assay; format: cell-based; settings: Homo sapiens, as a determination of p38 activity, read-out: IC50 values in the monocyte assay (LPS induced TNF release)
Protocol: Test compounds were evaluated in vitro for the ability to inhibit the production of TNF by monocytes activated with bacterial lipopolysaccharide (LPS). Fresh residual source leukocytes (a byproduct of plateletpheresis) were obtained from a local blood bank, and peripheral blood mononuclear cells (PBMCs) were isolated by density gradient centrifugation on Ficol-Paque Plus (Pharmacia). PBMCs were suspended at 2×10^6/ml in DMEM supplemented to contain 2% FCS, 10 mM, 0.3 mg/ml […], 100 U/ml penicillin G and […] streptomycin sulfate (complete media). Cells were plated into Falcon flat bottom, 96 well culture plates (200 μl/well) and cultured overnight at 37° C. and 6% CO2. Non-adherent cells were removed by washing with 200 μl/well of fresh medium. Wells containing adherent cells (˜70% monocytes) were replenished with 100 μl of fresh medium.
Test compounds were dissolved in […]. Compound stock solutions were prepared to an initial concentration of […]. Stocks were diluted initially to 20-200 μM in complete media. Nine two-fold serial dilutions of each compound were then prepared in complete medium.
One hundred microliters of each test compound dilution were added to microtiter wells containing adherent monocytes and 100 μl complete medium. Monocytes were cultured with test compounds for 60 min at which time 25 μl of complete medium containing 30 ng/ml lipopolysaccharide from E. coli K532 were added to each well. Cells were cultured an additional 4 hrs. Culture supernatants were then removed and TNF presence in the supernatants was quantified using an ELISA.
Flat bottom, 96 well Corning High Binding ELISA plates were coated overnight (4° C.) with 150 μL/well of 3 μg/ml murine anti-human TNF-α MAb (R&D Systems #MAB210). Wells were then blocked for 1 hr at room temperature with 200 μL/well of CaCl2-free ELISA buffer supplemented to contain 20 mg/ml BSA (standard ELISA buffer: […], 150 mM NaCl, 2 mM CaCl2, 0.15 mM thimerosal, pH 7.4). Plates were washed and replenished with 100 μl of test supernatants (diluted 1:3) or standards. Standards consisted of eleven 1.5-fold serial dilutions from a stock of 1 ng/ml recombinant human TNF (R&D Systems). Plates were incubated at room temperature for 1 hr on orbital shaker (300 rpm), washed and replenished with 100 μl/well of 0.5 μg/ml goat anti-human TNF-α (R&D systems #AB-210-NA) biotinylated at a 4:1 ratio. Plates were incubated for 40 min, washed and replenished with 100 μl/well of alkaline phosphatase-conjugated streptavidin (Jackson ImmunoResearch #016-050-084) at 0.02 μg/ml. Plates were incubated 30 min, washed and replenished with 200 μl/well of 1 mg/ml of p-nitrophenyl phosphate. After 30 min, plates were read at 405 nm on a Vmax plate reader.
Standard curve data were fit to a second order polynomial and unknown TNF-α concentrations determined from their OD by solving this equation for concentration. TNF concentrations were then plotted vs. test compound concentration using a second order polynomial. This equation was then used to calculate the concentration of test compounds causing a 50% reduction in TNF production.

SMILES	IC50 [2]	IC50 [1]
CNc1cc(N(C)C(=O)Nc2cc(C(=O)Nc3ccc(C(C)(C)C)cc3)ccc2C)ncn1 [Example 25]	≤ 5 µM	< 5 µM
CNc1cc(N(C)C(=O)Nc2cc(C(=O)Nc3ccc(C(F)(F)F)cc3)ccc2C)ncn1 [Example 32, 4-methyl-3-(((methyl(6-(methylamino)-4-pyrimidinyl)amino)carbonyl)amino)-N-(4-(trifluoromethyl)phenyl)benzamide]	≤ 5 µM	< 5 µM
CNc1cc(N(C)C(=O)Nc2cc(C(=O)Nc3cccc(C(F)(F)F)c3)ccc2C)ncn1 [Example 16, ′4-methyl-3-(((methyl(6-(methylamino)-4-pyrimidinyl)amino)carbonyl)amino)-N-(3-(trifluoromethyl)phenyl) benzamide]	≤ 5 µM	< 5 µM
CNc1cc(N(C)C(=O)Nc2cc(C(=O)Nc3cccc(C(F)(F)F)c3F)ccc2C)ncn1 [Example 24, N-(2-fluoro-3-(trifluoromethyl)phenyl)-4-methyl-3-((methyl(6-(methylamino)-4-pyrimidinyl)amino)carbonylamino)benzamide]	≤ 5 µM	< 5 µM
CNc1cc(N(C)C(=O)Nc2cc(C(=O)Nc3cc(OC)cc(C(F)(F)F)c3)ccc2C)ncn1 [Example 18, 4-methyl-3-(((methyl(6-(methylamino)-4-pyrimidinyl)amino)carbonyl)amino)-N-(3-(methyloxy)-5-(trifluoromethyl)phenyl) benzamide]	≤ 5 µM	< 5 µM
CNc1cc(N(C)C(=O)Nc2cc(C(=O)Nc3cccc(C(F)(F)F)c3C)ccc2C)ncn1 [Example 20, 4-methyl-3-(((methyl(6-(methylamino)-4-pyrimidinyl)amino)carbonyl)amino)-N-(2-methyl-3-(trifluoromethyl)phenyl)benzamide]	≤ 5 µM	< 5 µM

Now from value to compound, other results behind:

IC50 [2]	SMILES	IC50 [1]
≤ 5 µM	CNc1cc(N(C)C(=O)Nc2cc(C(=O)Nc3cccc(-c4ccccc4)c3)ccc2C)ncn1 [Example 31, N-(1,1′-biphenyl-3-yl)-4-methyl-3-(((methyl(6-(methylamino)-4-pyrimidinyl)amino)carbonyl)amino)benzamide]	< 5 µM
≤ 5 µM	CNc1ncnc(N(C)C(=O)Nc2cc(C(=O)Nc3ccc4ccccc4c3)ccc2C)n1 [Example 30, 4-methyl-3-(((methyl(4-(methylamino)-1,3,5-triazin-2-yl)amino)carbonyl)amino)-N-(2-naphthalenyl) benzamide]	< 5 µM
≤ 5 µM	CNc1cc(N(C)C(=O)Nc2cc(C(=O)Nc3ccc4ccccc4c3)ccc2C)ncn1 [Example 23, 4-methyl-3-(((methyl(6-(methylamino)-4-pyrimidinyl)amino)carbonyl)amino)-N-(2-naphthalenyl) benzamide]	< 5 µM
≤ 5 µM	CNc1cc(N(C)C(=O)Nc2cc(C(=O)Nc3cccc(C(C)C)c3)ccc2C)ncn1 [Example 17, 4-methyl-N-(3-(1-methylethyl)phenyl)-3-(((methyl(6-(methylamino)-4-pyrimidinyl)amino)carbonyl)amino) benzamide]	< 5 µM
